The target in this test is T1, human S1P1 receptor (Homo sapiens, UniProt P21453).
T1 construct: expressed in transfected cells; membranes used
T1 sequence (P21453 whole entry): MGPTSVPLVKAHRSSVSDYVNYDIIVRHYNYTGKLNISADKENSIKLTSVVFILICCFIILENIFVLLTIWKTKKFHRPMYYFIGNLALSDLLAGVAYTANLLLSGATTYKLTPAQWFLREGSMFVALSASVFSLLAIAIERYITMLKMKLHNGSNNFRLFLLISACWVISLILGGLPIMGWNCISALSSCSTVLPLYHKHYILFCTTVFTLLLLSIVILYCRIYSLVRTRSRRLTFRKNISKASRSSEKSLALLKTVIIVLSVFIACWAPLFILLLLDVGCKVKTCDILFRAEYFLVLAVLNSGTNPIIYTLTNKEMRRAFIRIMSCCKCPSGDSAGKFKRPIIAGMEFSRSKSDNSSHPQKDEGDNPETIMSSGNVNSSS
Put plainly: GTP γ35S binding assay for S1P1 activity. Type of test: biochemical. The note with it: activity potency, S1P1 receptor from GTP γ35S binding; 5 μg membrane protein; test compounds 0.08 to 5,000 nM; 30 min at 25° C. Here is the method: Compounds were synthesized and tested for S1P1 activity using the GTP γ^35S binding assay. These compounds may be assessed for their ability to activate or block activation of the human S1P1 receptor in cells stably expressing the S1P1 receptor.
GTP γ^35S binding was measured in the medium containing (mM) HEPES 25, pH 7.4, MgCl2 10, NaCl 100, dithitothreitol 0.5, digitonin 0.003%, 0.2 nM GTP γ^35S, and 5 μg membrane protein in a volume of 150 μl. Test compounds were included in the concentration range from 0.08 to 5,000 nM unless indicated otherwise. Membranes were incubated with 100 μM 5′-adenylylimmidodiphosphate for 30 min, and subsequently with 10 μM GDP for 10 min on ice. Drug solutions and membrane were mixed, and then reactions were initiated by adding GTP γ^35S and continued for 30 min at 25° C. Reaction mixtures were filtered over Whatman GF/B filters under vacuum, and washed three times with 3 mL of ice-cold buffer (HEPES 25, pH7.4, MgCl2 10 and NaCl 100). Filters were dried and mixed with scintillant, and counted for ^35S activity using a β-counter. Agonist-induced GTP γ^35S binding was obtained by subtracting that in the absence of agonist. Binding data were analyzed using a non-linear regression method. In case of antagonist assay, the reaction mixture contained 10 nM […] in the presence of test antagonist at concentrations ranging from 0.08 to 5000 nM.
The compound `CCCC(Sc1nnc(-c2ccc(CNCCCP(=O)(O)O)cc2)o1)c1cccc(Cl)c1F` (centres unmarked) [Compound 15, (3-{[4-(5-{[1-(3-chloro-2-fluorophenyl)butyl]thio}-1,3,4-oxadiazol-2-yl)benzyl]amino}propyl)phosphonic acid] displayed an EC50 of 1.8 nM.
As for `CCc1cc(CNCCCP(=O)(O)O)sc1-c1nnc(SC(C)c2cccc([N+](=O)[O-])c2)o1` (centres unmarked) [Compound 26, [3-({[4-ethyl-5-(5-{[1-(3-nitrophenyl)ethyl]sulfanyl}-1,3,4-oxadiazol-2-yl)thiophen-2-yl]methyl}amino)propyl]phosphonic acid], the EC50 was found to be 1260 nM.
`CCC(Sc1nnc(-c2ccc(CNCCCP(=O)(O)O)cc2)o1)c1cccc([N+](=O)[O-])c1` (centres unmarked) [Compound 16, (3-{[4-(5-{[1-(3-nitrophenyl)propyl]thio}-1,3,4-oxadiazol-2-yl)benzyl]amino}propyl)phosphonic acid] gave an EC50 of 40 nM.
For the compound `O=P(O)(O)CCCNCc1ccc(-c2nnc(SCc3cccc(Cl)c3F)o2)cc1` [Compound 1, {3-[(4-{5-[(3-chloro-2-fluorobenzyl)thio]-1,3,4-oxadiazol-2-yl}benzyl)amino]propyl}phosphonic acid], the EC50 is 853 nM.
Compound `CCC(Sc1nnc(-c2ccc(CNCCCP(=O)(O)O)cc2C)o1)c1cccc([N+](=O)[O-])c1` (centres unmarked) [Compound 7, (3-{[3-methyl-4-(5-{[1-(3-nitrophenyl)propyl]thio}-1,3,4-oxadiazol-2-yl)benzyl]amino}propyl)phosphonic acid] displayed an EC50 of 50 nM.
In the case of `Cc1ccc(-c2nnc(SC(C)c3ccc(CNCCCP(=O)(O)O)cc3)o2)cc1C` (centres unmarked) [(3-{[4-(1-{[5-(3,4-dimethylphenyl)-1,3,4-oxadiazol-2-yl]thio}ethyl)benzyl]amino}propyl)phosphonic acid] it was 888 nM.
Next, `Cc1cc(CNCCCP(=O)(O)O)ccc1-c1nnc(SC(C)c2cccc([N+](=O)[O-])c2)o1` (centres unmarked) [Compound 6, (3-{[3-methyl-4-(5-{[1-(3-nitrophenyl)ethyl]thio}-1,3,4-oxadiazol-2-yl)benzyl]amino}propyl)phosphonic acid]: 231 nM.
Compound `O=[N+]([O-])c1cccc(CSc2nnc(-c3ccc(CNCCCP(=O)(O)O)cc3)o2)c1` [Compound 9, {3-[(4-{5-[(3-nitrobenzyl)thio]-1,3,4-oxadiazol-2-yl}benzyl)amino]propyl}phosphonic acid] showed an EC50 of 1810 nM.
In turn, `Cc1ccc(CSc2nnc(-c3ccc(CNCCCP(=O)(O)O)cc3)o2)cc1C` [Compound 10, {3-[(4-{5-[(3,4-dimethylbenzyl)thio]-1,3,4-oxadiazol-2-yl}benzyl)amino]propyl}phosphonic acid] showed an EC50 of 97 nM.
In turn, `Cc1ccc(-c2nnc(SCc3ccc(CNCCCP(=O)(O)O)cc3)o2)cc1C` [(3-{[4-({[5-(3,4-dimethylphenyl)-1,3,4-oxadiazol-2-yl]thio}methyl)benzyl]amino}propyl)phosphonic acid] came in with an EC50 of 805 nM.
In the case of `CCCC(Sc1nnc(-c2ccc(CNCCCP(=O)(O)O)cc2)o1)c1ccccc1` (centres unmarked) [Compound 14, {3-[(4-{5-[(1-phenylbutyl)thio]-1,3,4-oxadiazol-2-yl}benzyl)amino]propyl}phosphonic acid], it took 1.5 nM to reach a half-maximal effect (EC50).
The compound `CC(Sc1nnc(-c2ccc(CNCCCP(=O)(O)O)cc2)o1)c1cccc([N+](=O)[O-])c1` (centres unmarked) [Compound 17, (3-{[4-(5-{[1-(3-nitrophenyl)ethyl]thio}-1,3,4-oxadiazol-2-yl)benzyl]amino}propyl)phosphonic acid] came in with an EC50 of 382 nM.
Next, `CCc1cc(CNCCCP(=O)(O)O)ccc1-c1nnc(SC(C)c2cccc([N+](=O)[O-])c2)o1` (centres unmarked) [Compound 11, (3-{[3-ethyl-4-(5-{[1-(3-nitrophenyl)ethyl]thio}-1,3,4-oxadiazol-2-yl)benzyl]amino}propyl)phosphonic acid]: 30 nM; `Cc1cc(CNCCCP(=O)(O)O)sc1-c1nnc(SC(C)c2cccc([N+](=O)[O-])c2)o1` (centres unmarked) [Compound 27, [3-({[4-methyl-5-(5-{[1-(3-nitrophenyl)ethyl]sulfanyl}-1,3,4-oxadiazol-2-yl)thiophen-2-yl]methyl}amino)propyl]phosphonic acid]: 200 nM.
